Test results as given in article PMC5748833, “Synthesis and Biological Evaluation of Novel Hybrid Molecules Containing Purine, Coumarin and Isoxazoline or Isoxazole Moieties” (The Open Medicinal Chemistry Journal, 2017).
Several values for one entry are separate records, joined by “and”; a condition that tells them apart may be missing. Equal entries are not always repeated.

Legend:
[1] = Inhibition of linoleic acid lipid peroxidation (AAPH); settings: 100 μM compound, 37°C
Description: 2.2.2.3 Inhibition of linoleic acid lipid peroxidation
Production of conjugated diene hydroperoxide by oxidation of linoleic acid sodium salt in an aqueous solution was monitored at 234 nm. 2,2’-Azobis(2-amidinopropane) dihydrochloride (AAPH) was used as a free radical initiator. 10 μl of the 16 mM linoleic acid sodium salt solution was added to the UV cuvette containing 0.93 ml of 0.05 M phosphate buffer, pH 7.4 prethermostated at 37°C. The oxidation reaction was initiated at 37°C under air by the addition of 50 μl of 40 mM AAPH solution. Oxidation was carried out in the presence of 10 μl of the examined compounds (stock solution in DMSO). In the assay without antioxidant, lipid oxidation was measured in the presence of the same level of DMSO. The rate of oxidation at 37°C was monitored by recording the increase in absorption at 234 nm caused by conjugated diene hydroperoxides (Table 5). Trolox was used as a standard.
Anti-lipid peroxidation activity. The water-soluble azo compound AAPH has been extensively used as a clean and controllable source of thermally produced alkyl peroxyl free radicals, through spontaneous thermal decomposition. […] In the AAPH assay, the highly reactive alkylperoxyl radicals are intercepted mainly by a hydrogen atom transfer (HAT) from the antioxidant.

soybean lipoxygenase = biological target: T1, soybean lipoxygenase (Glycine max, UniProt P08170); assay: Soybean lipoxygenase inhibition in vitro; format: biochemical; settings: for %LOX @ 100μΜ: 100 μM compound
T1 construct: purchased Sigma Chemical, Co. (St. Louis, MO, USA)
T1 sequence (P08170 1-839): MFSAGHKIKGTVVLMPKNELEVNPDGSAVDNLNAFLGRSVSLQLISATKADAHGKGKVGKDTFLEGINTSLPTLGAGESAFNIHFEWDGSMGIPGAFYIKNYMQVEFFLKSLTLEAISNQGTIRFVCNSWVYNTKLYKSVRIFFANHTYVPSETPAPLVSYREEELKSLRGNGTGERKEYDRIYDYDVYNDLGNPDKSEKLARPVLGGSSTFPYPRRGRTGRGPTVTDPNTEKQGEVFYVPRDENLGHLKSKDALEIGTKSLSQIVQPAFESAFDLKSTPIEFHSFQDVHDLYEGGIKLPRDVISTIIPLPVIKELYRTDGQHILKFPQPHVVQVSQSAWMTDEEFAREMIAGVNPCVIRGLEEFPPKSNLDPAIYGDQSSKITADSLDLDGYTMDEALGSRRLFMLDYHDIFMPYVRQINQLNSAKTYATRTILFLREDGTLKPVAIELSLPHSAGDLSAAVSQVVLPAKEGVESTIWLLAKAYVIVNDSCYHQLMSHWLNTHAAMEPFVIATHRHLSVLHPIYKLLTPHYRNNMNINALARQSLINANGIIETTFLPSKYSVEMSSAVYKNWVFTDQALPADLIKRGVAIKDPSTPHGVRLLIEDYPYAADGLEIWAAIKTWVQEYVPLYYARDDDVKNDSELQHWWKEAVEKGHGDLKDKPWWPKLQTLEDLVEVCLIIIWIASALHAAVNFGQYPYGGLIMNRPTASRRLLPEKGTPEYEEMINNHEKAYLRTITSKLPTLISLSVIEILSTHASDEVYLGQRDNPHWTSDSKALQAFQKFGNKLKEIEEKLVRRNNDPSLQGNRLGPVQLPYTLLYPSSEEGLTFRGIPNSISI
Description: 2.2.2.4 Soybean lipoxygenase inhibition study in vitro [14]
In vitro study was evaluated as reported previously. The tested compounds dissolved in ethanol were incubated at room temperature with sodium linoleate (0.1 mM) and 0.2 ml of enzyme solution (1/9 x10^-4 w/v in saline). […] Several concentrations were used for the determination of IC50 values (Table 5).
LO is the key enzyme in leukotriene biosynthesis. Leukotrienes derived from the biotransformation of arachidonic acid catalyzed by 5-lipoxygenase (5-LO), are important inflammatory mediators implicated in several diseases. LOs play a role in membrane lipid peroxidation by forming hydroperoxides in the lipid bilayer. […] Most of the LO inhibitors are antioxidants or free radical scavengers, since lipoxygenation occurs via a carbon-centered radical. The evaluation of the novel coumarin hybrids against soybean lipoxygenase LO was accomplished by the UV-based enzyme assay.

[2] = biological target: T2, electric eel acetylcholinesterase (eeAChE) (Electrophorus electricus, UniProt O42275); assay: biochemical; format: biochemical; settings: for inhibition at 10 µM: read-out: eeAChE % inhibn. @ 10 μΜ; for IC50: read-out: eeAChE IC50 μΜ
T2 construct: purchased Sigma
T2 sequence (O42275 24-633): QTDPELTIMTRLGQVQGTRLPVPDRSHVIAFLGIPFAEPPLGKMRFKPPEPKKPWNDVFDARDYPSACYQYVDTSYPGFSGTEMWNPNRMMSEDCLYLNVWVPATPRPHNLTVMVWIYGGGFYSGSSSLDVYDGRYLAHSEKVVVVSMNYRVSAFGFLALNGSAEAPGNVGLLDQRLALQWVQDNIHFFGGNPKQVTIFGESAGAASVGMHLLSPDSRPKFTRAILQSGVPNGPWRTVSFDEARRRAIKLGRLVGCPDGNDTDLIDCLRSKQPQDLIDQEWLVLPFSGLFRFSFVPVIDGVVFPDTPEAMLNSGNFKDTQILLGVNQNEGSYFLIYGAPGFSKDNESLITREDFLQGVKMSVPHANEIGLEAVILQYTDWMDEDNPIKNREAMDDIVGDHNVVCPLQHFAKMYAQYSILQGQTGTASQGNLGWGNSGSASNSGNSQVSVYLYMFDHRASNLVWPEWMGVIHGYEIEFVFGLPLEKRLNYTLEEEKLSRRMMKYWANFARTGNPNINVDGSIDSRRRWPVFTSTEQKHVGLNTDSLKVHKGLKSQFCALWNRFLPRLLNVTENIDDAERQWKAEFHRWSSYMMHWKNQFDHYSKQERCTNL
Excerpt: (§1) 2.2.2.5 Inhibition Study on ChEs in vitro
(§2) In vitro inhibition of electric eel acetylcholinesterase (eeAChE; 463 U/mg, Sigma) and equine serum butyrylcholinesterase (esBChE; 13 U/mg, Sigma) was investigated with a 96-well plate procedure based on the classical Ellman’s spectrophotometric test, as already described.

[3] = biological target: T3, equine serum butyrylcholinesterase (esBChE) (Equus caballus, UniProt P81908); assay: Inhibition of esBChE (Ellman's test); format: biochemical; settings: for inhibition at 10 µM: read-out: esBChE % inhibn. @ 10 μΜ
T3 construct: purchased Sigma; host or cells: equine serum
T3 sequence (P81908 whole entry): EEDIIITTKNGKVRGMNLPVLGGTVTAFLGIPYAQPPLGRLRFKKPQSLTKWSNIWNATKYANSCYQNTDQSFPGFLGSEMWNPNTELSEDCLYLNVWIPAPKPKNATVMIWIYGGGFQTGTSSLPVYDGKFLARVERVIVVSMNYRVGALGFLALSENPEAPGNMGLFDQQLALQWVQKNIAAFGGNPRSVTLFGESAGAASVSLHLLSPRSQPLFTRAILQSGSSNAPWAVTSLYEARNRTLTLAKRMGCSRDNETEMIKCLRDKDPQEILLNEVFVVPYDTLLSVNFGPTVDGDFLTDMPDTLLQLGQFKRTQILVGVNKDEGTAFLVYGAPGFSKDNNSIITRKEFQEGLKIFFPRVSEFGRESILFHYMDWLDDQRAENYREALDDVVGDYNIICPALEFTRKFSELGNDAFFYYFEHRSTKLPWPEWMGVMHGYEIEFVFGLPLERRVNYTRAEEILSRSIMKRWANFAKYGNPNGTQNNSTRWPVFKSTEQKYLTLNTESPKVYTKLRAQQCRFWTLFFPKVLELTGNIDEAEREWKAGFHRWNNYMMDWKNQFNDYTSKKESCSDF
Excerpt: as §1, §2

rat monoamine oxidase A = biological target: T4, rat monoamine oxidase A (Rattus norvegicus, UniProt P21396); assay: Inhibition of MAO-A (spectrofluorimetric method); format: biochemical; settings: 10 μM compound
T4 construct: from tissue
T4 sequence (P21396 1-526): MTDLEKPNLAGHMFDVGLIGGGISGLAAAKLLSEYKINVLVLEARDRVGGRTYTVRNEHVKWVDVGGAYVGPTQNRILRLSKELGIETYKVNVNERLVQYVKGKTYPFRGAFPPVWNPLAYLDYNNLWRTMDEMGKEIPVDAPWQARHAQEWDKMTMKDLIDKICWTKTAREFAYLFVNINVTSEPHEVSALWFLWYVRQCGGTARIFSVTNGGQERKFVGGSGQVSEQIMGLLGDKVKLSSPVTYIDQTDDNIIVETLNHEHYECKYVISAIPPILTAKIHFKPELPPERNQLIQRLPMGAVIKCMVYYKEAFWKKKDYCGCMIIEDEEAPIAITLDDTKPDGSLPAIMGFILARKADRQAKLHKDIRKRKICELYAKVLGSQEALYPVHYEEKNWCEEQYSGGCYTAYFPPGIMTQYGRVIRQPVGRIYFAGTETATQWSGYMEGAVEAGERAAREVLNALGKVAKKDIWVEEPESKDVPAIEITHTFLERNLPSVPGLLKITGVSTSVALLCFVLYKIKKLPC
Excerpt: (§3) 2.2.2.6 Inhibition Study on MAOs in vitro
(§4) Inhibition of rat monoamine oxidase A and B was studied by means of a spectrofluorimetric method as previously detailed.

rat monoamine oxidase B = biological target: T5, rat monoamine oxidase B (Rattus norvegicus, UniProt P19643); assay: Inhibition of MAO-B (spectrofluorimetric method); format: biochemical; settings: 10 μM compound
T5 construct: from tissue
T5 sequence (P19643 1-520): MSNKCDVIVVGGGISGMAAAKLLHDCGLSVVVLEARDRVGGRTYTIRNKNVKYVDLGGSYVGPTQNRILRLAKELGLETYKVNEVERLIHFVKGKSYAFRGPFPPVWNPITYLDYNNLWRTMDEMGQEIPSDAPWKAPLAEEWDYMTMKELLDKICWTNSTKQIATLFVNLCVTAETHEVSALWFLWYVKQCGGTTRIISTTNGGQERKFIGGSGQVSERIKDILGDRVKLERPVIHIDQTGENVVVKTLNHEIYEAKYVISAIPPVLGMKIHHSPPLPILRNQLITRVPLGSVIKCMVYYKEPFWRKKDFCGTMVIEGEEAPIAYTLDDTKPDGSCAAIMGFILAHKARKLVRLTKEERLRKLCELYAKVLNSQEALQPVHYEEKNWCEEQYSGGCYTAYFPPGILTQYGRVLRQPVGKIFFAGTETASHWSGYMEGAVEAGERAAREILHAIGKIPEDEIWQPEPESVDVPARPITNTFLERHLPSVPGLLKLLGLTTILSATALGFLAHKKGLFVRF
Excerpt: as §3, §4

[4] = Reducing activity of the stable radical DPPH; settings: 100 μM compound, after 20 min
Description: 2.2.2.1 Determination of the reducing activity of the stable radical 1, 1-diphenyl-picrylhydrazyl (DPPH)
To a solution of DPPH (100μM) in absolute ethanol an equal volume of the compounds dissolved in ethanol was added. As control solution ethanol was used. The concentration of the solutions of the compounds was 100μM. After 20 and 60 min at room temperature the absorbance was recorded at 517 nm (Table 5). NDGA was used as a standard.
The compounds were studied for their antioxidant activity by the use of the stable 2,2-diphenyl-1-picrylhydrazyl radical (DPPH) at concentration 0.1mM after 20 min. […] This purple colour generally disappears in the presence of an antioxidant. The reduction of absorbance is a measure of the free DPPH due to the action of the antioxidant. The antioxidant activity was expressed as the RA% (Reducing Activity). […] Within the group of derivatives 4 the presence of the morpholinyl or piperidinyl rings at position A as well as the carbonyl group at position B, hinder the interaction of the compounds to the free stable radical DPPH.

| SMILES | LP % @ 100μΜ (inhibition of lipid peroxidation) [1] | %LOX @ 100μΜ (soybean lipoxygenase) | inhibition at 10 µM [2] | inhibition at 10 µM [3] | MAO-A (%) @ 10μΜ (rat monoamine oxidase A) | MAO-B (%) @ 10μΜ (rat monoamine oxidase B) | RA% @ 100μΜ (reducing activity, DPPH) [4] | inhibition at 100 µM (soybean lipoxygenase; read-out: %LOX @ 100μΜ) | IC50 [2] | IC50 (soybean lipoxygenase; read-out: LOX IC50 μΜ) | IC50 ([3]; read-out: esBChE IC50 μΜ) |
| --- | --- | --- | --- | --- | --- | --- | --- | --- | --- | --- | --- |
| Cc1cc(=O)oc2cc(OCC3=NOC(Cn4cnc5c(N6CCOCC6)ncnc54)C3)ccc12 (stereo not drawn) [11f] | 48% | no | 43% | 14% | 16% | 8% | – | – | – | – | – |
| Cc1cc(=O)oc2ccc(OCc3cc(Cn4cnc5c(N6CCCCC6)ncnc54)no3)cc12 [13a, 4-methyl-6-({3-[(6-piperidin-1-yl-9H-purin-9-yl)methyl]isoxazol-5-yl}methoxy)-2H-chromen-2-one] | – | no | 40% | 23% | 47% | 33% | no | – | – | – | – |
| Cc1cc(=O)oc2ccc(OCc3cc(Cn4cnc5c(N6CCOCC6)ncnc54)no3)cc12 [13b] | – | – | – | 13% | 12% | no | no | 44% | 3.1 µM | – | – |
| O=c1ccc2ccc(OCc3cc(Cn4cnc5c(N6CCCCC6)ncnc54)no3)cc2o1 [13e] | – | – | – | – | 18% | 15% | no | – | 1.73 µM | 62.5 µM and 62 µM | 18 µM |
